In publication PMC12358976, “NMR-Based Fragment Screen of the von Hippel-Lindau Elongin C&B Complex” (ACS Medicinal Chemistry Letters, 2025) one finds Kd data, which are given here for 15 molecules.

In this assay the target is T1, VHL-Elongin C-Elongin B (VCB) complex (Homo sapiens, UniProt P40337).
T1 construct: gene (residues 54-213) was cloned into pET28a(+) vector; Elongin C (residues 17-112); His-tag (cleaved yes); made in house; host or cells: E. coli BL21(DE3), M9 minimal media with 15NH4Cl
T1 sequence (P40337 54-213): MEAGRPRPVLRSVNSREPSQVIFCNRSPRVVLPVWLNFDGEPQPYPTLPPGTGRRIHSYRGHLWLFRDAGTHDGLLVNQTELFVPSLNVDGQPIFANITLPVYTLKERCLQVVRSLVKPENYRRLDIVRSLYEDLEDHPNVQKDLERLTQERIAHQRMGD
T1 sequence (Q15369 17-112, further chain): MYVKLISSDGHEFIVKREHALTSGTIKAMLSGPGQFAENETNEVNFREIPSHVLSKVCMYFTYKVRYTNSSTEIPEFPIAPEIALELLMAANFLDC
T1 sequence (Q15370 1-104 partner limits assumed): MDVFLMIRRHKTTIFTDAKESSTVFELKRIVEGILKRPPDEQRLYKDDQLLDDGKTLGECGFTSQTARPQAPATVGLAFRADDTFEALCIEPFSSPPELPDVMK
Kind of assay: Protein-observed NMR (1H-15N TROSY) titration of fragment hits against 15N-labeled VCB. The assay is classed as binding. How it is done: All NMR experiments were carried out at 310K using a 900 MHz Bruker Avance III spectrometer equipped with a TXI/TCI CryoProbe and a Bruker SampleJet. Two-dimensional 1H-15N TROSY spectra of VCB complex were recorded using 30-minute acquisition time and analyzed using Topspin 4.1.4 (Bruker). […]
screened as mixtures of 12 fragments prepared in twelve 96-well plates. Each NMR sample was made of 100µM of 15N-labeled VCB, 800µM of each fragment, and 5% DMSO-d6 for spectrometer locking in 3mm-diameter NMR tubes (Bruker). Hit mixtures were identified by comparing the chemical shifts of the backbone resonances to a ligand-free VCB spectrum and then deconvoluted by screening individual fragments.
TROSY titration experiments were used to determine binding affinity of the fragment hits identified from the screen. […]

The mark [1] stands for this setting: TROSY titration, fragment 0.31-10 mM, 310K, Hill's equation model, hits grouped by binding pocket (A unknown, B VHL cryptic, C Elongin C, D HIF1α), read-out: NMR-derived binding affinity (KD).

Read-outs that look alike come from different tables or passages of the source.

On to `SC1=NC2(CCCC2)N=C1c1ccccc1` [compound 8], for which the Kd under setting [1] is 530 µM.

For the molecule `Clc1ccc(CN2CCCCC2)cc1Cl` [compound 6], the Kd under setting [1] was found to be 450 µM.

Regarding `CC(C)N1CCN(Cc2ccccc2F)CC1` [compound 14], the Kd was 3700 µM.

For the molecule `O=C1CCc2cc([N+](=O)[O-])ccc2N1` [compound 1], the equilibrium dissociation constant (Kd) under setting [1] was 1700 µM.

In the case of `Cc1nc2cc(C(=O)O)ccc2n1C` [compound 16], under setting [1], the dissociation constant (Kd) was determined as 6000 µM.

Take `CN(C)CCN(C)Cc1ccc(F)cc1` [compound 12]: the Kd under setting [1] was found to be 1300 µM.

Consider `O=C(Nc1ccc(F)c(Cl)c1)c1cnccn1` [compound 10], for which the Kd under setting [1] came to 710 µM.

As to `Nc1ccc2c(c1)ncn2CCO` [compound 15], under setting [1], the Kd worked out at 4000 µM.

`Nc1nc2ccccc2n1Cc1ccccc1` [compound 2]: the dissociation constant Kd under setting [1] was 490 µM.

For the molecule `Cc1cc(Nc2cccc(O)c2)c2cccc(C)c2n1` [compound 11], the dissociation constant Kd under setting [1] amounted to 1600 µM.

For `O=C(O)c1ccnc2[nH]cnc12` [compound 17], under setting [1], the Kd was 7500 µM.

Turning to `CC(C)OC(=O)c1ccc(Cl)c(N)c1` [compound 4], the equilibrium dissociation constant (Kd) under setting [1] was found to be 5600 µM.

On to `CC(C)NC(=O)c1cc2ccc3cccnc3c2[nH]1` [compound 5], for which the dissociation constant (Kd) under setting [1] amounted to 8200 µM.

Consider `CC(=O)c1cccc(NC(=O)c2cccs2)c1` [compound 7], for which the Kd under setting [1] was 470 µM.

As to `CC(=O)N1CCc2ccc([N+](=O)[O-])cc21` [compound 9], under setting [1], the Kd came to 660 µM.

The Kd is the constant that tells how readily two partners part at equilibrium.
